± gives the standard deviation of the averaged measurements.
Experiments:
[1] = compound: CCN(CC)CCCCNc1ncc2cc(-c3cc(OC)cc(OC)c3)c(NC(=O)NC(C)(C)C)nc2n1; experiment: surviving fraction relative to DMSO-only wells; higher = less growth inhibition; conditions: exposure time: 5 days
Outline: (§1)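 Viability was determined by CellTiter-Glo luminescence, expressed as surviving fraction normalised to the median of DMSO-only wells. The cells were log-phase tumour cell lines seeded at 250–500 per well in 384-well plates and, after 24 hours, exposed continuously for five days to inhibitors at 0.5, 1, 5, 10, 50, 100, 500 and 1000 nM. Three screens per line were run, keeping only lines with replicate Pearson r >0.7 and median Z' >0.3.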

[2] = compound: Nc1ncn([C@H]2C[C@H](O)[C@@H](CO)O2)c(=O)n1 [DECITABINE]; experiment: as above; conditions: exposure time: 5 days
Outline: as §1

Test System | surviving fraction ([1]; 0.5 nM) | surviving fraction ([1]; 1 nM) | surviving fraction ([1]; 5 nM) | surviving fraction ([1]; 10 nM) | surviving fraction ([1]; 50 nM) | surviving fraction ([1]; 100 nM) | surviving fraction ([1]; 500 nM) | surviving fraction ([1]; 1000 nM) | surviving fraction ([2]; 0.5 nM) | surviving fraction ([2]; 1 nM) | surviving fraction ([2]; 5 nM) | surviving fraction ([2]; 10 nM) | surviving fraction ([2]; 50 nM) | surviving fraction ([2]; 100 nM) | surviving fraction ([2]; 500 nM) | surviving fraction ([2]; 1000 nM)
SNU475 LIVER | 0.785 ± 0.028 | 0.964 ± 0.053 | 0.894 ± 0.05 | 0.987 ± 0.027 | 0.916 ± 0.044 | 0.939 ± 0.019 | 0.906 ± 0.022 | 0.886 ± 0.029 | 1.06 ± 0.024 | 1.05 ± 0.024 | 1.051 ± 0.0036 | 1.02 ± 0.026 | 1.03 ± 0.017 | 0.984 ± 0.038 | 1.03 ± 0.036 | 1.03 ± 0.032
HSSYII SYNOVIAL | 0.799 ± 0.027 | 0.9 ± 0.044 | 0.886 ± 0.029 | 0.784 ± 0.05 | 0.475 ± 0.013 | 0.402 ± 0.007 | 0.274 ± 0.005 | 0.26 ± 0.0082 | 0.972 ± 0.032 | 1.01 ± 0.046 | 0.933 ± 0.048 | 0.938 ± 0.073 | 0.86 ± 0.049 | 0.696 ± 0.024 | 0.48 ± 0.012 | 0.348 ± 0.036
LNCAP PROSTATE | 0.864 ± 0.066 | 0.878 ± 0.1 | 0.7647 ± 0.0046 | 0.922 ± 0.16 | 0.898 ± 0.11 | 0.934 ± 0.11 | 0.933 ± 0.11 | 1.03 ± 0.026 | 0.917 ± 0.037 | 1.02 ± 0.11 | 0.954 ± 0.083 | 1.01 ± 0.11 | 0.785 ± 0.02 | 0.695 ± 0.1 | 0.634 ± 0.044 | 0.522 ± 0.0079
SCC90 HEADNECK | 0.884 ± 0.044 | 0.96 ± 0.036 | 0.839 ± 0.18 | 0.951 ± 0.036 | 0.88 ± 0.049 | 0.961 ± 0.17 | 0.883 ± 0.17 | 0.814 ± 0.035 | 0.985 ± 0.073 | 0.995 ± 0.065 | 1.11 ± 0.075 | 1.03 ± 0.072 | 1.13 ± 0.074 | 1.11 ± 0.018 | 1.3 ± 0.25 | 1.05 ± 0.17
HOSMNG BONE | 1.02 ± 0.09 | 1 ± 0.072 | 0.994 ± 0.04 | 1.01 ± 0.062 | 0.996 ± 0.062 | 1.02 ± 0.11 | 1.02 ± 0.041 | 1.02 ± 0.065 | 1.04 ± 0.043 | 1.03 ± 0.057 | 1.02 ± 0.061 | 1.02 ± 0.072 | 1.1 ± 0.036 | 1.12 ± 0.086 | 1.1 ± 0.12 | 1.11 ± 0.046
JURKAT HAEMATOPOIETIC AND LYMPHOID TISSUE | 1.03 ± 0.042 | 1.08 ± 0.015 | 1.04 ± 0.022 | 1.055 ± 0.0052 | 1 ± 0.039 | 1.05 ± 0.02 | 1.02 ± 0.021 | 1.07 ± 0.021 | 1 ± 0.04 | 1.06 ± 0.025 | 0.823 ± 0.022 | 0.746 ± 0.034 | 0.121 ± 0.0055 | 0.072 ± 0.003 | 0.0327 ± 0.00058 | 0.028 ± 0.001
143B BONE | 0.941 ± 0.078 | 0.997 ± 0.026 | 0.954 ± 0.068 | 1.02 ± 0.032 | 1.01 ± 0.016 | 1.01 ± 0.061 | 0.97 ± 0.054 | 0.995 ± 0.038 | 1.09 ± 0.088 | 1.08 ± 0.09 | 1.09 ± 0.067 | 1.1 ± 0.069 | 1.13 ± 0.11 | 1.11 ± 0.076 | 0.992 ± 0.11 | 0.956 ± 0.031
SG27 HEADNECK | 0.947 ± 0.15 | 1.03 ± 0.087 | 1.01 ± 0.12 | 1.01 ± 0.086 | 0.879 ± 0.04 | 0.817 ± 0.032 | 0.784 ± 0.05 | 0.805 ± 0.047 | 1.17 ± 0.15 | 1.12 ± 0.06 | 1.15 ± 0.14 | 1.07 ± 0.14 | 1.2 ± 0.065 | 1.18 ± 0.14 | 1.11 ± 0.063 | 1.19 ± 0.16
T47D BREAST | 0.967 ± 0.03 | 1.02 ± 0.028 | 1.02 ± 0.047 | 1.01 ± 0.017 | 1.03 ± 0.023 | 1.02 ± 0.043 | 1.02 ± 0.054 | 1.08 ± 0.03 | 1.03 ± 0.049 | 1.06 ± 0.035 | 1.05 ± 0.029 | 1.04 ± 0.028 | 1.12 ± 0.049 | 1.08 ± 0.024 | 1.04 ± 0.049 | 1.06 ± 0.057
MFM223 BREAST | 1.02 ± 0.04 | 1.1 ± 0.022 | 0.982 ± 0.1 | 0.823 ± 0.089 | 0.361 ± 0.029 | 0.277 ± 0.019 | 0.282 ± 0.026 | 0.258 ± 0.012 | 1.5 ± 0.59 | 1.51 ± 0.5 | 1.45 ± 0.48 | 1.47 ± 0.53 | 1.05 ± 0.061 | 1.05 ± 0.1 | 0.993 ± 0.095 | 0.799 ± 0.02

Source: the supplement of paper PMC6045584
